Test results as given in EP4640678A1, “NOVEL OXO-PYRIDINE COMPOUND, PREPARATION METHOD THEREFOR, AND USE THEREOF” (Chengdu Shibeikang Biomedical Technology Co., Ltd., priority 2022, dated 2024).

What was measured:
[1] = target: human FXla (Homo sapiens, UniProt P03951); assay: Activity assay of coagulation factor FXla inhibitor (S-2366 substrate, OD405nm); format: biochemical; settings: 5 concentrations 200 nM to 0.32 nM, 0.8 nM (2X) human FXla working solution
Source text: X: log value of compound concentration; Y: inhibition rate (%).

[2] = system: human plasma; assay: determination of in-vitro anticoagulant effect in human plasma (APTT); format: biochemical; settings: for APTT prolongation rate (%): healthy human plasma, 37°C for 3 min; for EC150: estimated from the APTT test results in human plasma
Experimental: After centrifugation, the plasma sample was pipetted and frozen (-80°C) for later use.
A proper amount of a compound was weighed and prepared into a 10-100 mM stock solution using 100% of DMSO (the specific concentration of the stock solution was determined based on the properties of the compound); and then working solutions with various concentrations (specifically: 1 µM, 3 µM and 10 µM, respectively) were prepared from the stock solution using the healthy human plasma as a solution and thoroughly mixed. After incubation at 37°C for 3 min, the sample was placed on an instrument (model: CS-2000I) to determine APTT.
GraphPad Prism software was used for analysis to calculate the APTT prolongation rate at each concentration.

[3] = Effect of continuous in-vivo administration on general condition and food intake of rats; settings: for Food intake (g, mean±SD) / food intake compared with the blank group: 500 mg/kg PO once a day for 14 days, within 24 hours after the last administration
Source text: Each group had 10 rats, equally distributed by gender. The rats received drug administrations via oral gavage once a day for 14 consecutive days, following the administration regimen outlined in the table below. The blank group was given an equal volume of a vehicle. […] Table 4 Continuous administration regimen

human FXla, sequence (P03951 388-625 limits assumed): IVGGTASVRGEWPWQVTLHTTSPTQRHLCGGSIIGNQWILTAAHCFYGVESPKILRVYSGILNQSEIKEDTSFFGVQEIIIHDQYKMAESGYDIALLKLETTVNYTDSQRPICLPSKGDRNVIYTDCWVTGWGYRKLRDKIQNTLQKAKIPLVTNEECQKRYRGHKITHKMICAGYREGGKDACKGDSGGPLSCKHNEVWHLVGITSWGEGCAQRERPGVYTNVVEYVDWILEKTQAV
human FXla, sequence (P03951 19-387 partner limits assumed): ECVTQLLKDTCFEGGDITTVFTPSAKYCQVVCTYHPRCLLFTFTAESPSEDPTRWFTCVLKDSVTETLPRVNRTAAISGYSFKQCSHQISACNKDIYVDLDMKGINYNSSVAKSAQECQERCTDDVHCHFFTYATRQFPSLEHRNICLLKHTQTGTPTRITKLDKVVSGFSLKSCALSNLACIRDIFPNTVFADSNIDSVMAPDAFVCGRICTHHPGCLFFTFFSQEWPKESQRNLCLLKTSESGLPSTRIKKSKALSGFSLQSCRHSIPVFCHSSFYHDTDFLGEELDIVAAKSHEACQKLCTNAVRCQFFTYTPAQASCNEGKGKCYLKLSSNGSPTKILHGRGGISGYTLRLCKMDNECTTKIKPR

Row | Structure (SMILES) | IC50 [1] [nM] | APTT prolongation rate (%) ([2]; 3 µM) | APTT prolongation rate (%) ([2]; 10 µM) | EC150 [2] | Food intake (g, mean±SD) [3] [g] | food intake compared with the blank group ([3]; SD rats) | APTT prolongation rate (%) ([2]; 1 µM) | general condition of the rats ([3]; SD rats, 500 mg/kg PO once a day for 14 consecutive days)
1 | [2H]C([2H])([2H])Oc1cn([C@@H](CC)C(=O)Nc2ccc(C(N)=O)c(F)c2)c(=O)cc1-c1cc(Cl)ccc1-n1cc(C(F)(F)F)nn1 [Compound 21, (S)-4-(2-(4-(5-chloro-2-(4-(trifluoromethyl)-1H-1,2,3-triazol-1-yl)phenyl)-5-(methoxy-d3)-2-oxopyridin-1(2H)-yl)butanamido)-2-fluorobenzamide] |  |  |  |  | 27.08 ± 1.23 | essentially the same food intake as the blank group |  | 
2 | CC[C@@H](C(=O)Nc1ccc(C(N)=O)c(F)c1)n1cc(OC)c(-c2cc(Cl)ccc2-n2cc(C(F)(F)F)nn2)cc1=O [Comparative example 1, (S)-4-(2-(4-(5-chloro-2-(4-(trifluoromethyl)-1H-1,2,3-triazol-1-yl)phenyl)-5-methoxy-2-oxopyridin-1(2H)-yl)butanamido)-2-fluorobenzamide, reference compound] |  |  |  |  | 24.98 ± 0.92 | significantly reduced food intake |  | piloerection and hypoactivity were found in 1/3 or more of the rats
3 | CC[C@@H](C(=O)Nc1ccc(C(N)=O)c(C(F)(F)F)c1)n1cc(OC)c(-c2cc(Cl)ccc2-n2cc(C(F)(F)F)nn2)cc1=O [Compound 7, (S)-4-(2-(4-(5-chloro-2-(4-(trifluoromethyl)-1H-1,2,3-triazol-1-yl)phenyl)-5-methoxy-2-oxopyridin-1(2H)-yl)butanamido)-2-(trifluoromethyl)benzamide] |  | 52.4 | 73.4 |  |  |  | 37.9 | 

The next lines start with results.

Row | IC50 [1] [nM] | Structure (SMILES) | APTT prolongation rate (%) ([2]; 3 µM) | APTT prolongation rate (%) ([2]; 10 µM) | EC150 [2] | Food intake (g, mean±SD) [3] [g] | food intake compared with the blank group ([3]; SD rats) | APTT prolongation rate (%) ([2]; 1 µM) | general condition of the rats ([3]; SD rats, 500 mg/kg PO once a day for 14 consecutive days)
4 | 1.65 | CC[C@@H](C(=O)Nc1ccc(C(=O)NC)c(F)c1)n1cc(OC)c(-c2cc(Cl)ccc2-n2cc(C(F)(F)F)nn2)cc1=O [Compound 17, (S)-4-(2-(4-(5-chloro-2-(4-(trifluoromethyl)-1H-1,2,3-triazol-1-yl)phenyl)-5-methoxy-2-oxopyridin-1(2H)-yl)butanamido)-2-fluoro-N-methylbenzamide] | 82.6 | 145.3 | less than 1 µM |  |  |  | 
5 | 25.5 | CC[C@@H](C(=O)Nc1ccc(C(N)=O)cc1F)n1cc(OC)c(-c2cc(Cl)ccc2-n2cc(C(F)(F)F)nn2)cc1=O [Compound 13, (S)-4-(2-(4-(5-chloro-2-(4-(trifluoromethyl)-1H-1,2,3-triazol-1-yl)phenyl)-5-methoxy-2-oxopyridin-1(2H)-yl)butanamido)-3-fluorobenzamide] | 80.2 | 175.9 | less than 1 µM |  |  |  | 
6 | 7.53 | CC[C@@H](C(=O)Nc1ccc(C(N)=O)c(Cl)c1)n1cc(OC)c(-c2cc(Cl)ccc2-n2cc(C(F)(F)F)nn2)cc1=O [Compound 1, (S)-2-chloro-4-(2-(4-(5-chloro-2-(4-(trifluoromethyl)-1H-1,2,3-triazol-1-yl)phenyl)-5-methoxy-2-oxopyridin-1(2H)-yl)butanamido)benzamide] | 65.8 | 136.5 | less than 1 µM |  |  |  | 
7 | 9.06 | CC[C@@H](C(=O)Nc1ccc(C(=O)NC)c(OC)c1)n1cc(OC)c(-c2cc(Cl)ccc2-n2cc(C(F)(F)F)nn2)cc1=O [Compound 18, (S)-4-(2-(4-(5-chloro-2-(4-(trifluoromethyl)-1H-1,2,3-triazol-1-yl)phenyl)-5-methoxy-2-oxopyridin-1(2H)-yl)butanamido)-2-methoxy-N-methylbenzamide] | 46.1 | 90.6 |  |  |  | 33.2 | 
